Laboratory results taken from PMC5651845, “A New Generation of Arachidonic Acid Analogues as Potential Neurological Agent Targeting Cytosolic Phospholipase A2” (Scientific Reports, 2017).

What was measured:
[1] = biological target: T1, sPLA2, human recombinant type V (Homo sapiens, UniProt P39877); experiment: EnzChek phospholipase A2 fluorogenic assay (selectivity) with sPLA2; type: biochemical; details: 10 μM
T1 construct: purchased Cayman Chemical 10009563
T1 sequence (P39877 21-138): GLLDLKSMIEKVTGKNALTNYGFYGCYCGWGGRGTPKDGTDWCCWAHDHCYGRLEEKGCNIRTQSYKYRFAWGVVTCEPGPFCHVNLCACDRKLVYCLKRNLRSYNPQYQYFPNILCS
Description: To further explore their selectivity towards cPLA2, 10 μM of 2g and 2i were evaluated for their inhibition against recombinant sPLA2 using the fluorogenic PLA2 assay (Fig. 3C).
The assay was conducted as described above. Instead of adding cPLA2, it was replaced by sPLA2. 48 μL of 1X phospholipase A2 reaction buffer was added into each well of a 96-wells plate. This was followed by addition of 1 μL of sPLA2, human recombinant type V (10009563, Cayman Chemical) and 1 μL of 1 mM of the respective compound or thioetheramide-PC (62750, Cayman Chemical) dissolved in DMSO. The final concentration of the test compound achieved is 10 μM. The reaction was initiated by adding 50 μL of the substrate solution and incubating at room temperature for 1 h. Fluorescence was measured using a Varioskan plate reader by exciting at 485 nm, while fluorescence emission was detected at 515 nm. Positive control was performed when 1 μL of test compound was replaced by vehicle DMSO. % activity was expressed as the mean value of duplicate wells from four experiments. % activity was calculated by the following formula:2 %activity=fluorescenceoftestedwell−background/fluorescenceofpostivecontrol−background

[2] = biological target: T2, recombinant cPLA2 (Homo sapiens, UniProt P47712); experiment: EnzChek phospholipase A2 fluorogenic assay (% activity) at 10 μM; type: biochemical; details: 10 μM compound
T2 construct: purchased US Biological P4074-03R
T2 sequence (P47712 1-749): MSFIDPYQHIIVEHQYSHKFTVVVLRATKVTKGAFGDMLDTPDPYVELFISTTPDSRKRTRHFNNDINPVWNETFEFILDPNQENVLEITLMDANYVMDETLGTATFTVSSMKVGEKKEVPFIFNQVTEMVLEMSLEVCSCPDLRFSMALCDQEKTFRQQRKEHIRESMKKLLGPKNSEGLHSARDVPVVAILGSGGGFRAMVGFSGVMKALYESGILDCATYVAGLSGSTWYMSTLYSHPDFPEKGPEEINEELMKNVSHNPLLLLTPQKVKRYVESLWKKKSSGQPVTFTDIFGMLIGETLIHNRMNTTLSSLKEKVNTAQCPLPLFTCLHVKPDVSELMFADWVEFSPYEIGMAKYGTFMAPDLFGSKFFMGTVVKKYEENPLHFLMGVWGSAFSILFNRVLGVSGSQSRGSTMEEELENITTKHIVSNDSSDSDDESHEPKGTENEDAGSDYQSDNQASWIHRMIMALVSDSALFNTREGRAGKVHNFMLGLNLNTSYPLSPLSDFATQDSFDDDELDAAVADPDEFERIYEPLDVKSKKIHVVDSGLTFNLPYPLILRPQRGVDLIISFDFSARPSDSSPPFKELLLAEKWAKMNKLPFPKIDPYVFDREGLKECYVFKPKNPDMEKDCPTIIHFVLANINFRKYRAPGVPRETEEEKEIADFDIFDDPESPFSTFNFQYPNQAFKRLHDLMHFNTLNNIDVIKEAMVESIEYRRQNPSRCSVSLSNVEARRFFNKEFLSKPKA
Description: The compounds were evaluated with a fluorogenic PLA2 assay kit (EnzChek® Phospholipase A2 Assay Kit, Catalog No: E10217) at a standard 10 μM concentration. Potential inhibitors were determined by their ability to lower cPLA2 activity to a greater extent than 1a.
The assay was conducted according to the manufacturer’s instruction (E10217, Molecular Probes) with slight modification. Briefly, substrate solution was separately prepared by mixing 5 μL of DOPG, 5 μL of DOPC and 5 μL of substrate respectively in 1.5 mL of 1X phospholipase A2 reaction buffer. The mixture was vortexed vigorously for 3 min before allowing to stand at room temperature for 1 h. 48 μL of 1X phospholipase A2 reaction buffer were added into each well of a 96-wells plate. This was followed by addition of 1 μL of recombinant cPLA2 (P4074-03R, US Biological) and 1 μL of 1 mM of the respective compound dissolved in DMSO. The final concentration of the test compound achieved is 10 μM. The reaction was initiated by adding 50 μL of the substrate solution and incubating at room temperature for 1 h. Fluorescence was measured using a Varioskan plate reader (Thermo Scientific, MA, USA) by exciting at 485 nm, while fluorescence emission was detected at 515 nm. Positive control was performed when 1 μL of test compound was replaced by vehicle DMSO. % activity was expressed as the mean value of duplicate wells from three experiments. % activity was calculated by the following formula1 %activity=fluorescenceoftestedwell−background/fluorescenceofpostivecontrol−background

[3] = test system: HEK293T cells; experiment: MTS cell proliferation assay on HEK293T cells; type: cell-based, human; details: 10 μM, 48 h and 72 h, vs vehicle control
Description: (§1) To explore whether the inhibitors are cytotoxic, MTS assay were conducted on BV-2 cells, a murine microglial cell line derived from post-natal mouse cerebella, and HEK293T cells that are derived from human embryonic kidney. Both cell types were treated with 10 μM of 1a, 2g and 2i for 48 h and 72 h (Fig. 3A,B). Dimethyl sulfoxide (DMSO) vehicle control was also included as the compounds were dissolved in DMSO.
(§2) Cells were plated on a 96-wells plate and grown for 24 h to a density of 8000 cells per well for both HEK293T and BV-2 cells. Cells were cultured at 37 °C under a 5% CO2 environment in 100 μL of culture medium. Thereafter, the compound of interest dissolved in culture medium at a concentration of 10 μM was replaced into each well. DMSO was added as vehicle in the control group. 3 biological replicates were performed. The plates were then incubated at 37 °C with 5% CO2 for 48 h and 72 h. At each individual time point, 20 μL of CellTiter 96® AQueous One Solution (MTS reagent) was added into each well and re-incubated at 37 °C with 5% CO2 without light for 3 h. Colorimetric readings were taken using a Varioskan plate reader at 490 nm and analyzed. Three independent biological repeats with four technical replicates were performed.

[4] = biological target: T2, recombinant cPLA2; experiment: EnzChek phospholipase A2 fluorogenic assay (IC50); type: biochemical
Description: The assay was conducted as described above. Instead of adding a fixed concentration of the test compound, various concentrations of compound were reconstituted in DMSO. 48 μL of 1X phospholipase A2 reaction buffer were added into each well of a 96-wells plate. This was followed by addition of 1 μL of recombinant cPLA2 (P4074-03R, US Biological) and 1 μL of the respective concentration of the test compound dissolved in DMSO. The reaction was initiated by adding 50 μL of the substrate solution and incubating at room temperature for 1 h. Fluorescence was measured using a Varioskan plate reader by exciting at 485 nm, while fluorescence emission was detected at 515 nm. Positive control was performed when 1 μL of test compound was replaced by vehicle DMSO. IC50 was expressed as the mean value of duplicate wells from three experiments.

[5] = test system: BV-2 cells; experiment: MTS cell proliferation assay on BV-2 cells; type: cell-based, murine; details: 10 μM, 48 h and 72 h, vs vehicle control
Description: as §1, §2

[6] = biological target: T1, sPLA2, human recombinant type V; set-up: method as in PMID 2303420; details: cited from earlier work

Compound	sPLA2 activity ([1]; relative to DMSO control) [%]	inhibition at 10 µM [2] [%]	remaining activity at 10 µM ([2]; 1 h, room temperature) [%]	cytotoxicity (MTS) on HEK293T cells [3]	IC50 [4] [µM]	fold stronger cPLA2 inhibition than 1a (from IC50) ([4]; relative to 1a) [fold]	cytotoxicity (MTS) on BV-2 cells [5]	reduction of sPLA2 activity [1] [%]	IC50 [6] [µM]
CCCCC/C=C\C/C=C\C/C=C\C/C=C\CCCCC(=O)NCCCCC(=O)O [2g]	184	84.5	15.5 ± 0.3	no significant toxic effects	5.3 ± 0.3	3	no significant toxic effects		
CCCCCCCCCCCCCCCCSC[C@H](COP(=O)(O)OCC[N+](C)(C)C)NC(=O)CCCCCCCCCCCCCCC [Thioetheramide-PC, reference compound]								62	2
